Assay results published in BigSolDB 2.1.

C[C@@]12C[C@H]3OC(=O)[C@@H]1CO[C@]14O[C@@]5([C@H]2C1=O)[C@@]3(C)OC(=O)[C@@]5(O)CC[C@H]1[C@H]4C[C@@H](O)[C@@]2(O)CC=CC(=O)[C@]12C
solubility (mole fraction)
Conditions | in acetone | in chloroform | in ethanol | in ethyl acetate | in methanol | in water
283.2 K | 0.0173 | 0.0046 | 0.0039 | 0.003 | 0.0081 | 0.0012
293.2 K | 0.022 | 0.0047 | 0.0047 | 0.0032 | 0.0092 | 0.0021
298.2 K | 0.0238 | 0.0049 | 0.0058 | 0.0036 | 0.0101 | 0.0027
303.2 K | 0.0265 | 0.0053 | 0.0071 | 0.0042 | 0.0109 | 0.0028
308.2 K | 0.0286 | 0.0058 | 0.0089 | 0.0052 | 0.0122 | 0.0029
313.2 K | 0.0309 | 0.006 | 0.0107 | 0.0059 | 0.0159 | 0.003
